{"source": "paper PMC4585938", "about": "“Ursolic acid exerts anti-cancer activity by suppressing vaccinia-related kinase 1-mediated damage repair in lung cancer cells” (Scientific Reports, 2015)", "target": "vaccinia-related kinase 1 (VRK1) (Homo sapiens, UniProt Q99986)", "sequence (Q99986 whole entry)": "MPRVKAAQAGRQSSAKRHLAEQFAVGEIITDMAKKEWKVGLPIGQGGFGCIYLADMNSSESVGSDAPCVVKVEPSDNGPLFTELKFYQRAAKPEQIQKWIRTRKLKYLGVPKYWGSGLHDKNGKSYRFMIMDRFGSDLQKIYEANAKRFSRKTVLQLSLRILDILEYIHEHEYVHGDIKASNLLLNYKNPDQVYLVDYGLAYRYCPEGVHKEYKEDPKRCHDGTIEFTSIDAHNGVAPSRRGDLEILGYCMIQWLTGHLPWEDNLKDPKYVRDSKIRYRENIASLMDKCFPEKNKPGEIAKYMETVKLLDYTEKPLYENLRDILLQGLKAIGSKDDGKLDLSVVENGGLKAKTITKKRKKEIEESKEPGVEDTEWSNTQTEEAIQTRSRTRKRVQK", "assay": "biochemical", "assay_type": "binding"}
{"compound": "C[C@H]1[C@H](C)CC[C@]2(C(=O)O)CC[C@]3(C)C(=CC[C@@H]4[C@@]5(C)CC[C@H](O)C(C)(C)[C@@H]5CC[C@]43C)[C@H]12", "note": "[UA, (1S,2R,4aS,6aR,6aS,6bR,8aR,10S,12aR,14bS)-10-hydroxy-1,2,6a,6b,9,9,12a-heptamethyl-2,3,4,5,6,6a,7,8,8a,10,11,12,13,14b-tetradecahydro-1H-picene-4a-carboxylic acid]", "values": [{"measurement": "Kd", "value": 731, "unit": "nM"}]}
